Data published in patent US8846704B2, “Thiopyrimidine-based compounds and uses thereof” (YM Biosciences Austraila Pty Ltd, priority 2007, dated 2014).

How the values were obtained:
human JAK1 = target: T1, human JAK1 (Homo sapiens, UniProt P23458); assay: Alphascreen tyrosine kinase enzyme assay, JAK1 kinase domain; format: biochemical; conditions: read-out: JAK1 IC50_nM
T1 construct: The kinase domain of human JAK1 was amplified; GST (N); made in house; host or cells: Sf9 insect cells (baculovirus)
T1 sequence (P23458 875-1153 limits assumed): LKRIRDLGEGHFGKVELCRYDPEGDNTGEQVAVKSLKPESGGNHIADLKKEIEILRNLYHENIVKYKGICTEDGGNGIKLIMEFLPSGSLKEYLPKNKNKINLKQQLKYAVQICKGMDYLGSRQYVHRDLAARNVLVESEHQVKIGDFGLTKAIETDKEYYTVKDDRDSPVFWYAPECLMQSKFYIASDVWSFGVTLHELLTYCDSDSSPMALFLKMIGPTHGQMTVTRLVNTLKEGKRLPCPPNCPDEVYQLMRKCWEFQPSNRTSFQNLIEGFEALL

human JAK2 = target: T2, human JAK2 (Homo sapiens, UniProt O60674); assay: Alphascreen tyrosine kinase enzyme assay, JAK2 kinase domain; format: biochemical; conditions: read-out: JAK2 IC50_nM
T2 construct: The kinase domain of human JAK2 was amplified; GST (N); made in house; host or cells: Sf9 insect cells (baculovirus)
T2 sequence (O60674 849-1124 limits assumed): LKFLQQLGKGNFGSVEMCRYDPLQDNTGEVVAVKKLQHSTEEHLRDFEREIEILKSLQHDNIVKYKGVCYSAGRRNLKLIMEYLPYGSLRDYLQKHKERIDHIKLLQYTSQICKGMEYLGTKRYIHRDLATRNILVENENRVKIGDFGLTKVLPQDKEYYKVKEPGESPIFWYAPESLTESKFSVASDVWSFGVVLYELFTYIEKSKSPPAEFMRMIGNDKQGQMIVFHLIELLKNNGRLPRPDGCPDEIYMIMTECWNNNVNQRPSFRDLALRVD
How it was run: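 JAK2 kinase domain expressed in baculovirus/Sf9 and glutathione-affinity purified. Compounds (final […]) pre-incubated 20 min with enzyme in 10 mM HEPES pH 7.5, MgCl2, NaCl, vanadate, 0.1% Tween 20.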

[1] = target: T3, BaF3 TELJAK2 cells (BafT_J2) (Homo sapiens, UniProt O60674); assay: Cellular screening, BaF3 TEL:JAK2 cells, Alamar Blue; format: cell-based; conditions: 40 hr, read-out: BafT_J2 IC50_nM
T3 construct: fused on or other part: TEL (ETV6) N-terminal part, coding nucleotides 1-487, serves as the oligomerising partner; It is fused through a Sal I site to the JAK2 kinase domain and expressed from pTRE2 in BaF3 cells bearing pTET-off; P41212 (Transcription factor ETV6)
T3 sequence (O60674 whole entry, change not shown, the tested form may be a part): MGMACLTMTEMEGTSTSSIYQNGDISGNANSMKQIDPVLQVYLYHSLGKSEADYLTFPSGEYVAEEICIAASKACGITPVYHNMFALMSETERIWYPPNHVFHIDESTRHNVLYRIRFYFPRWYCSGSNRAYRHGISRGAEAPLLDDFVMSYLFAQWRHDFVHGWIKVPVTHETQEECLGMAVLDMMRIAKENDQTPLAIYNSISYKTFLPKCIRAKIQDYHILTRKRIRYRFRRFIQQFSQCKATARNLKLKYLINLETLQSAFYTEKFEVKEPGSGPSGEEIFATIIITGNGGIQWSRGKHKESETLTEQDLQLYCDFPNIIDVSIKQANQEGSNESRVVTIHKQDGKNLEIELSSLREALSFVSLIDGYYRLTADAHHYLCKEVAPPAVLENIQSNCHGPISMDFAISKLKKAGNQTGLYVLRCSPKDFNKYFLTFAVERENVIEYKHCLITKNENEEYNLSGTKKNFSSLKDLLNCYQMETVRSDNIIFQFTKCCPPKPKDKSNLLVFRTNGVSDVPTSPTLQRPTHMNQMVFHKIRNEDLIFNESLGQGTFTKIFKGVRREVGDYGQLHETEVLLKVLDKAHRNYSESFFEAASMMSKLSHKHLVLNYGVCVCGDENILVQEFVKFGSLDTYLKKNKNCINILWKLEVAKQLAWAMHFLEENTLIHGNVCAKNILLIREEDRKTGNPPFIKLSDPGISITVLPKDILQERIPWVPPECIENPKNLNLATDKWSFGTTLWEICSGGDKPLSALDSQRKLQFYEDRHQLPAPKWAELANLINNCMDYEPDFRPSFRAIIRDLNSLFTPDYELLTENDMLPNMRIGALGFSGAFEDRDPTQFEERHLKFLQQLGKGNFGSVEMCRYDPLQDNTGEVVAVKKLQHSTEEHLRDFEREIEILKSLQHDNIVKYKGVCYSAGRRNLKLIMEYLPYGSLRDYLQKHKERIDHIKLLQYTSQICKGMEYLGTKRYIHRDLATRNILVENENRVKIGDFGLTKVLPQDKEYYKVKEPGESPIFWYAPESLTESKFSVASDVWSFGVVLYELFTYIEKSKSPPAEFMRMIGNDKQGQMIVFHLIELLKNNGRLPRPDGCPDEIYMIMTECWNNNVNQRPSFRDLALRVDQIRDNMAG
How it was run: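 Tet-off BaF3 cells carrying a TEL (nt 1-487)–JAK2 kinase-domain fusion, grown factor-independently in DMEM with 10% Tet-approved FBS without WEHI 3B medium. Compounds were diluted to 20 μM in screening plates, and cells (50,000–200,000 cell/mL at 1.1×) were incubated 40 hr at 37 °C, 5% CO2. Alamar Blue was then added for 4-6 hours; read at 544 nm.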

CTLL2 = assay: Cellular screening, CTLL2 cells, Alamar Blue; format: cell-based; conditions: Mus musculus, CTLL-2, read-out: CTLL2 IC50_nM
How it was run: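 Viability is read with Alamar Blue at 544 nm, the dye added for the final 4-6 hours. Compounds were incubated for 40 hr with CTLL2 cells taken from late-log-phase culture, at 37° C in 5% CO2.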

For `c1cc(Sc2ccc(Cn3cnnn3)cc2)nc(Nc2ccc(N3CCOCC3)cc2)n1` [Compound 109, 4-(4-((1H-tetrazol-1-yl)methyl)phenylthio)-N-(4-morpholinophenyl)pyrimidin-2-ae], which IC50 (human JAK1) is on record?
Its IC50 is > 1 µM.

And the IC50 (human JAK2)?
The IC50 was < 1 µM.

And the GI50 [1]?
Its GI50 is < 20 µM.

What about the IC50 (CTLL2) of the same compound?
Its IC50 is > 20 µM.

With `C=CC(=O)Nc1ccc(Sc2nc(Nc3ccc(NS(C)(=O)=O)c(OC)c3)ncc2C)cc1` [Compound 296, N-(4-(2-(3-methoxy-4-(methylsulfonamido)phenylao)-5-methylpyrimidin-4-ylthio)phenyl)acrylamide] as the compound, how does the IC50 (human JAK1) read?
The IC50 was > 1 µM.

And the IC50 (human JAK2)?
The IC50 was > 1 µM.

And the GI50 [1]?
Its GI50 is < 5 µM.

And the IC50 (CTLL2)?
Its IC50 is < 1 µM.

Which results are given for `C=CC(=O)Nc1ccc(Sc2nc(Nc3ccc(N4CCOCC4)cc3)ncc2C)c(C)c1` [Compound 163, N-(3-methyl-4-(5-methyl-2-(4-morpholinophenylao)pyrimidin-4-ylthio)phenyl)acrylamide]?
IC50 (human JAK1): > 1 µM; IC50 (human JAK2): > 1 µM; GI50 [1]: > 20 µM; IC50 (CTLL2): < 1 µM

Which IC50 (human JAK1) does the source give for `O=C(/C=C/Cl)Nc1cccc(Sc2ccnc(Nc3ccc(N4CCOCC4)cc3)n2)c1` [Compound 340, (E)-3-chloro-N-(3-(2-(4-morpholinophenylao)pyrimidin-4-ylthio)phenyl)acrylamide] here?
The IC50 was > 1 µM.

And the IC50 (human JAK2)?
Its IC50 is > 1 µM.

And the GI50 [1]?
The GI50 was < 20 µM.

What about the IC50 (CTLL2) of the same compound?
Its IC50 is < 5 µM.

`C=CC(=O)Nc1ccc(Sc2nc(Nc3ccc(N4CCC(CO)CC4)cc3)ncc2C)cc1` [Compound 286, N-(4-(2-(4-(4-(hydroxymethyl)piperidin-1-yl)phenylao)-5-methylpyrimidin-4-ylthio)phenyl)acrylamide] was tested. Which IC50 (human JAK1) did it give?
The IC50 was > 1 µM.

And the IC50 (human JAK2)?
Its IC50 is > 1 µM.

And the GI50 [1]?
The GI50 was > 20 µM.

And the IC50 (CTLL2)?
Its IC50 is < 1 µM.

`Cc1cc(N)ccc1Sc1nc(Nc2ccc(N3CCOCC3)cc2)ncc1C` [Compound 162, 4-(4-ao-2-methylphenylthio)-5-methyl-N-(4-morpholinophenyl)pyrimidin-2-ae] was tested. Which IC50 (human JAK1) did it give?
Its IC50 is < 0.5 µM.

And the IC50 (human JAK2)?
The IC50 was < 1 µM.

What about the GI50 [1] of the same compound?
The GI50 was < 20 µM.

And the IC50 (CTLL2)?
The IC50 was < 5 µM.

Which IC50 (human JAK1) does the source give for `N#CCNCc1cccc(Sc2ccnc(Nc3ccc(N4CCOCC4)cc3)n2)c1` [Compound 68, 2-(3-(2-(4-morpholinophenylao)pyrimidin-4-ylthio)benzylao)acetonitrile] here?
The IC50 was < 1 µM.

And the IC50 (human JAK2)?
Its IC50 is < 0.1 µM.

And the GI50 [1]?
Its GI50 is < 20 µM.

What about the IC50 (CTLL2) of the same compound?
Its IC50 is > 20 µM.

Which IC50 (human JAK1) does the source give for `Nc1ccc(Sc2ccnc(Nc3ccc(N4CCOCC4)cc3)n2)cc1` [Compound 27, 4-(4-aophenylthio)-N-(4-morpholinophenyl)pyrimidin-2-ae] here?
The IC50 was < 1 µM.

What about the IC50 (human JAK2) of the same compound?
Its IC50 is < 0.5 µM.

What about the GI50 [1] of the same compound?
The GI50 was > 20 µM.

And the IC50 (CTLL2)?
Its IC50 is < 5 µM.

Which results are given for `OCc1ccc(Sc2ccnc(Nc3ccc(N4CCOCC4)cc3)n2)cc1` [Compound 67, (4-(2-(4-morpholinophenylao)pyrimidin-4-ylthio)phenyl)methanol]?
IC50 (human JAK1): < 1 µM; IC50 (human JAK2): < 0.5 µM; GI50 [1]: < 20 µM; IC50 (CTLL2): < 20 µM

For `Cc1cnc(Nc2ccc(N3CCOCC3)cc2)nc1Sc1ccc(NC(=O)CSCC(=O)O)cc1` [Compound 230, 2-(2-(4-(5-methyl-2-(4-morpholinophenylao)pyrimidin-4-ylthio)phenylao)-2-oxoethylthio)acetic acid], which IC50 (human JAK1) is on record?
The IC50 was < 1 µM.

And the IC50 (human JAK2)?
The IC50 was < 0.5 µM.

And the GI50 [1]?
Its GI50 is > 20 µM.

What about the IC50 (CTLL2) of the same compound?
The IC50 was > 20 µM.

How did the IC50 (human JAK1) turn out when `N#Cc1ncn(Cc2ccc(Sc3ccnc(Nc4ccc(N5CCOCC5)cc4)n3)cc2)c1C#N` [Compound 201, 1-(4-(2-(4-morpholinophenylao)pyrimidin-4-ylthio)benzyl)-1H-imidazole-4,5-dicarbonitrile] was run?
Its IC50 is > 1 µM.

What about the IC50 (human JAK2) of the same compound?
Its IC50 is > 1 µM.

And the GI50 [1]?
The GI50 was < 5 µM.

And the IC50 (CTLL2)?
The IC50 was < 5 µM.

Which results are given for `C=CC(=O)Nc1ccc(Sc2nc(Nc3ccc(OC)c(NS(C)(=O)=O)c3)ncc2C)cc1` [Compound 293, N-(4-(2-(4-methoxy-3-(methylsulfonamido)phenylao)-5-methylpyrimidin-4-ylthio)phenyl)acrylamide]?
IC50 (human JAK1): > 1 µM; IC50 (human JAK2): > 1 µM; GI50 [1]: < 5 µM; IC50 (CTLL2): < 1 µM

Which results are given for `C=CC(=O)N(C)c1ccc(Sc2nc(Nc3ccc(N4CCOCC4)cc3)ncc2C)cc1` [Compound 173, N-methyl-N-(4-(5-methyl-2-(4-morpholinophenylao)pyrimidin-4-ylthio)phenyl)acrylamide]?
IC50 (human JAK1): < 0.5 µM; IC50 (human JAK2): < 0.5 µM; GI50 [1]: < 20 µM; IC50 (CTLL2): < 1 µM

`C=CC(=O)Nc1ccc(Sc2nc(Nc3ccc(NS(C)(=O)=O)cc3)ncc2C)cc1` [Compound 285, N-(4-(5-methyl-2-(4-(methylsulfonamido)phenylao)pyrimidin-4-ylthio)phenyl)acrylamide] was tested. Which IC50 (human JAK1) did it give?
The IC50 was > 1 µM.

And the IC50 (human JAK2)?
The IC50 was > 1 µM.

And the GI50 [1]?
The GI50 was < 5 µM.

And the IC50 (CTLL2)?
The IC50 was < 1 µM.

`C=CC(=O)Nc1ccc(Sc2ccnc(Nc3cc(C)cc(C)c3)n2)cc1` [Compound 82, N-(4-(2-(3,5-dimethylphenylao)pyrimidin-4-ylthio)phenyl)acrylamide] was tested. Which IC50 (human JAK1) did it give?
Its IC50 is > 1 µM.

And the IC50 (human JAK2)?
Its IC50 is > 1 µM.

And the GI50 [1]?
Its GI50 is < 5 µM.

And the IC50 (CTLL2)?
The IC50 was < 20 µM.
